# In patent US11191811B2, “Osteocalcin as a treatment for frailty associated with aging” (THE TRUSTEES OF COLUMBIA UNIVERSITY IN THE CITY OF NEW YORK, priority 2014, dated 2021):
# How the values were obtained:
# muscle = experiment: Gene expression in muscle (qPCR); assay type: in vivo, mouse
# Experimental: FIG. 31. Osteocalcin treatment increases muscle function in young and old WT mice. (A-B) Performance during endurance exercise of 3 month-old WT, Gprc6af/f and Gprc6aMck−/− female mice treated with Ocn (n=6-10 per group). (C) Performance during endurance exercise of 12 and 15 month-old WT female mice treated with Ocn (n=6-10 per group). (D) Western blot analysis of Akt phosphorylation (Ser473) in muscles of WT mice injected with Ocn (500 ng/g) after a single bout of exercise. (E) Western blot analysis of AMPK phosphorylation ([…]) in muscles of WT mice injected with Ocn (500 ng/g) after a single bout of exercise. (F) Western blot analysis of HSL phosphorylation (Ser563) in muscles of WT mice injected with Ocn (500 ng/g) after a single bout of exercise. (G) Uptake of ^3H-2-DG in glycolytic (Gly—white quadriceps) and oxidative (Ox—red quadriceps) muscles after a single bout of exercise in 15 month-old WT mice receiving Ocn before running (n=5 per group). (H) Performance during endurance exercise of 10 month-old WT mice receiving Ocn for 28 days (n=7 per group). (I) Expression of Cd36, Fatp1 and Cpt1b in gastrocnemius of 10 month-old WT mice receiving Ocn for 28 days (n=7 per group). (J) Western blot analysis of Akt phosphorylation (Ser473) in muscles of WT mice receiving Ocn for 28 days (n=7 per group). (K) Schematic representation of how osteocalcin signaling in myofibers and IL-6 cooperate to increase exercise capacity.
# Serum osteocalcin, PINP, CTX, and insulin levels were measured using ELISA assays. Blood glucose level was measured using an Accu-Check glucometer. Urine 3-MHT was measured as previously described (Aranibar et al., 2011, Anal. Biochem. 410:84-91). Determination of cAMP accumulation was performed using a commercial kit (R&D). For gene expression, 1 μg of total RNA was reverse transcribed into cDNA. qPCR analyses were performed using a SYBER green master mix (Applied Biosciences) and a CFX-Connect real time PCR (Bio-Rad). Relative expression levels of each gene were normalized to that of Hprt or Gapdh. […]
# mice = experiment: Mouse asthma model (albumin sensitisation, nebulized albumin); assay type: in vivo; conditions: osteocalcin given by nebulization together with the nebulized albumin
# Description: In a mouse asthma model that involves intraperitoneal injection of albumin (to sensitize the mice) followed a week later by nebulized administration of albumin to the lungs of the mice, osteocalcin given by nebulization together with the nebulized albumin prevented the bronchoconstriction that would have otherwise been observed.
# wild type mice = experiment: Insulin sensitivity test after subcutaneous infusion; assay type: in vivo, mouse; conditions: 0.3 or 3 ng/hour subcutaneously for 18 days, 0-120 minutes after insulin injection
# Experimental: FIG. 3. Osteocalcin subcutaneous infusion increases insulin sensitivity in wild-type mice. Wild-type mice were infused subcutaneously with indicated doses of recombinant osteocalcin or PBS for 18 days before receiving a single injection of insulin. Blood glucose was measured thereafter at indicated times.
# The effect of uncarboxylated osteocalcin on insulin sensitivity was also examined. Wild type mice were infused subcutaneously with 0.3 or 3 ng/hour doses of recombinant osteocalcin or PBS for 18 days before receiving a single injection of insulin. Blood glucose was measured thereafter at the indicated times from 0-120 minutes after injection.
# [1] = test system: wild type mice injected with gold thioglucose (GTG); experiment: GTG-induced obesity; assay type: in vivo, mouse
# Experimental: FIG. 5. Osteocalcin subcutaneous infusion alleviates GTG-induced obesity in wild-type mice. Wild-type mice were injected with gold thioglucose (GTG) or vehicle to induce hyperphagia and obesity. Two weeks later they were implanted with subcutaneous osmotic pumps infusing […] of recombinant osteocalcin or PBS for 28 days before. Body weight gain was recorded thereafter at indicated days.
# For GTG-induced obesity, male and female 4 week-old wild-type (WT) and Osteocalcin^−/− mice (n=10 per group) were injected with […] of GTG
# The effect of uncarboxylated osteocalcin on GTG-induced obesity was investigated (FIG. 5). Wild type mice were injected with gold thioglucose (GTG) to induce hyperphagia and obesity or vehicle. Two weeks later they were implanted with subcutaneous osmotic pumps infusing 1 ng/hr of recombinant uncarboxylated osteocalcin or PBS for 28 days. […] At 28 days, body weight was reduced by about 15% with uncarboxylated osteocalcin treatment.
# WT mice = experiment: D/LT and EPMT in adult WT mice with ICV infusion; assay type: in vivo, mouse
# Experimental: FIG. 14. Osteocalcin improves cognitive function in adult wild-type (WT) mice. Results from dark and light (DLT) and elevated plus maze tests (EPMT) performed in 3-month old WT mice infused ICV with vehicle (PBS) or recombinant uncarboxylated osteocalcin (Ocn) (3, 10, 30 ng/hour) are shown. (A) DLT measuring the latency to enter, the number of entries, and the time spend in lit compartment. (B) EPMT measuring the number of entries into open arms and the time spend in […].
# Each mouse was allowed to explore the apparatus for 5 min. Global activity was assessed by measuring the number of entries […] (David et al, 2009, Neuron 62:479-493). Anxiety was assessed by comparing the time spent in the open arms.
# The test was performed in a quiet, darkened room. Mice were individually housed in cages containing a handful of bedding from their home cage and acclimated to the room at least 1 h before the test. Naïve mice were placed individually in the testing chamber in the dark compartment. The test was 5 min in duration, and time spent and number of entries in light compartments were recorded a highly trained observer, blind to the genotype of the mice.
# To determine if osteocalcin is sufficient to improve cognitive function in adult mice, WT 2-month old mice were implanted with ICV pumps delivering vehicle (PBS), or 3, 10, or 30 ng/hr recombinant uncarboxylated full-length mouse osteocalcin for a period of one month. After one month of infusion, animals were subjected to behavioral testing. […] This improvement is evidenced by an increase in the exploration of the lit compartment and open arms in the D/LT and EMP tests, respectively (FIG. 14A-B).
# [2] = 3 or 10 ng/hour ICV for one month
substance,measurement,setting,value
"uncarboxylated osteocalcin: Recombinant uncarboxylated mouse osteocalcin, bacterially produced, purified on glutathione beads and cleaved from the GST subunit by thrombin (YLGASVPSPDPLEPTREQCELNPACDELSDQYGLKTAYKRIYGITI)",expression in muscles of Glut1,muscle; at rest or after exercise,did not affect
same,expression in muscles of Glut4,muscle; at rest or after exercise,did not affect
same,expression in muscle of Fatp1,muscle; mini-pumps 90 ng/hour for 28 days,increase
same,bronchoconstriction,mice,prevented
same,insulin sensitivity,wild type mice,increased
same,insulin sensitivity,wild type mice; listed as Osteocalcin,increases
same,body weight gain,"[1]; 1 ng/hr subcutaneous osmotic pumps for 28 days, from 7 days on",significantly reduced
same,reduction of body weight,"[1]; 1 ng/hr, at 28 days",about 15%
same,GTG-induced obesity,[1]; subcutaneous infusion 28 days (FIG. 5 title),alleviates
same,exploration of the lit compartment (D/LT),WT mice; [2],increase
same,exploration of the open arms (EPMT),WT mice; [2],increase
same,anxiety-like behavior,"WT mice; 3 or 10 ng/hour ICV for one month, WT 2-month old mice",decrease
same,cognitive function,"WT mice; adult WT mice, ICV 3, 10, 30 ng/hour (FIG. 14 title)",improves
